Earlier results in patent US10786520B2, “Aminoglycoside derivatives and uses thereof in treating genetic disorders” (Eloxx Pharmaceuticals Ltd., priority 2015, dated 2020).

System: human fibroblast cells

CN[C@@H]1[C@@H](O)[C@@H](O[C@@H]2[C@@H](O)[C@H](O[C@H]3O[C@H]([C@@H](C)O)[C@@H](O)[C@H](O)[C@H]3N)[C@@H](N)C[C@H]2N)OC[C@]1(C)O [Compound G-418, G-418]
LD50 against human fibroblast cells: 0.04 mg/mL
